No end group written: not given here.
Legend:
[1] = test system: bFGF-stimulated capillary EC; test: Inhibition of bFGF-stimulated capillary EC proliferation by fragments of troponin I (Example 13, Table 2); type: cell-based, bovine; settings: for IC50: read-out: Approx. IC50
Procedure: On day one, 5,000 bovine capillary endothelial cells in DMEM/10% CS/1% GPS are plated onto each well of a 96-well pregelatinized tissue culture plate. On day two, the cell media is changed to DMEM, 2% CS, 1% GPS, 0.5% BSA (complete medium), supplemented with 10 μl of 1 mg/ml “cold” thymidine per 50 ml of medium. On day three, test samples in complete medium are added in duplicate. Additionally, […] (bFGF) is added to each well except for the appropriate controls, to a final concentration of 0.2 ng/well. On day four, 5 μl of 1:13 diluted ^3H-Thymidine stock is added to each well and the plate is incubated for 5–6 hours. Following incubation, the medium is aspirated, and the remainder is rinsed once with PBS, then twice for 5 minutes each with methanol followed by two rinses each for 10 minutes with 5% TCA. The cells are then rinsed with water three times, dried to the plate, and 100 μl of 0.3 N NaOH is added to each well. The contents of the well are then transferred to the scintillation counter vials and 3 mls of Ecolume added to each vial. Samples are then counted on the scintillation counter.
Recombinant peptides corresponding to fragments of rabbit (rb) TnI (SEQ ID NO:10) (FIG. 12) were tested for ability to inhibit bFGF-stimulated capillary EC as described above in Section 6, Examples 2 and 8. The rbTnI fragments (SEQ ID NOS:11–15) were prepared according to Jha et al., 1996, Biochemistry 35(34):11026–11035.

[2] = test system: embryonic neovascularization of the chick chorioallantoic membrane; settings: cited from earlier work; for Lowest reported dose effective as combination in the CAM assay: combined with hydrocortisone (60 μg)
[3] = test system: bovine capillary endothelial cells (BCE), bFGF-stimulated; test: bFGF-stimulated capillary endothelial cell proliferation, colorimetric acid phosphatase assay (Example 3); type: cell-based
Procedure: A quick and sensitive screen for inhibition of EC proliferation in response to treatment with a troponin subunit, homolog, or derivative of the invention involves incubating the cells in the presence of varying concentrations of the inhibitor and determining the number of endothelial cells in culture based on the colorimetric determination of cellular acid phosphatase activity, described by Connolly, et al., 1986, J. Anal. Biochem. 152:136–140.
The effect of troponin on the proliferation of capillary endothelial cells (EC) was measured in an assay which measures the ability of this protein to interfere with stimulation of endothelial cell proliferation by a known angiogenesis factor (bFGF).
Capillary endothelial cells and Balb/c 3T3 cells were separately plated (2×10^3/0.2 ml) onto gelatin-coated 96-well tissue culture dishes on day 1. On day 2, cells were refed with Dulbecco's modified Eagle's medium (Gibco) with 5% calf serum (Hyclone) (DMEM/5) and bFGF (10 ng/ml) (FGF Co.) and increasing concentrations of one or more troponin subunits. […] Wells containing phosphate buffered saline (PBS) (Gibco) alone and PBS+bFGF were included as controls. On day 5, media was removed and cells were washed with PBS and lysed in 100 μl of buffer containing 0.1 M sodium acetate (pH 5.5), 0.1% Triton X-100™ and 100 mM p-nitrophenyl phosphate (Sigma 104 phosphatase substrate). After incubation for 2 hours at 37° C., the reaction was stopped with the addition of 10 μl of 1 N NAOH. Color development was determined at 405 nm using a rapid microplate reader (Bio-Tek).
Percent inhibition was determined by comparing the cell number of wells exposed to stimulus with those exposed to stimulus and troponin subunits.

Molecule: RVRMSADAMLKALLGSKHKV [114–133]
- Approx. IC50 μg/well [1]: >>20 μg/well

Molecule: 122–181: recombinant rabbit TnI fragment, C′ region, aa 122–181 (LKALLGSKHKVCMDLRANLKQVKKEDTEKERDLRDVGDWRKNIEEKSGMEGRKKMFESES; listed as Oryctolagus cuniculus)
- Approx. IC50 μg/well [1]: >0.3 μg/well
- % I (Percent Inhibition) of EC proliferation ([1]; 0.01 μg/well): −1%
- % I (Percent Inhibition) of EC proliferation ([1]; 0.025 μg/well): −6%
- % I (Percent Inhibition) of EC proliferation ([1]; 0.1 μg/well): 20%
- % I (Percent Inhibition) of EC proliferation ([1]; 0.3 μg/well): 23%
- IC50 [1]: > 200 nM

Molecule: SADAMLKA [118–125]
- Approx. IC50 μg/well [1]: >>50 μg/well

Molecule: DLRANLKQ [136–143]
- Approx. IC50 μg/well [1]: >>50 μg/well

Molecule: KVCMDLRA [132–139]
- Approx. IC50 μg/well [1]: 75 μg/well

Molecule: KALLGSKH [124–131]
- Approx. IC50 μg/well [1]: >>50 μg/well

Molecule: CMDLRANL [134–141]
- Approx. IC50 μg/well [1]: 150 μg/well

Molecule: LLGSKHKV [126–133]
- Approx. IC50 μg/well [1]: >>50 μg/well

Molecule: heparin
- Lowest reported dose effective as combination in the CAM assay [2]: 50 µg

Molecule: GSKHKVCM [128–135]
- Approx. IC50 μg/well [1]: 150 μg/well

Molecule: DAMLKALL [120–127]
- Approx. IC50 μg/well [1]: >>50 μg/well

Molecule: DLRGKFKRPPLRRVRMSADA [102–121]
- Approx. IC50 μg/well [1]: >>20 μg/well

Molecule: PPLRRVRMSADAMLKALLGS [110–129]
- Approx. IC50 μg/well [1]: >>20 μg/well

Molecule: RMSADAML [116–123]
- Approx. IC50 μg/well [1]: >>50 μg/well

Molecule: Troponin C: troponin subunit C, calcium binding polypeptide of the troponin complex; human fast twitch sequence SEQ ID NO:1
- IC50 [3]: 278 nM
- Percent inhibition of BCE proliferation ([3]; 280 nM): 54%
- Percent inhibition of BCE proliferation ([3]; 1.4 μM): 86%
- Percent inhibition of BCE proliferation ([3]; 2.8 μM): 83%
- Percent inhibition of BCE proliferation ([3]; 5.6 μM (20 μg/well)): 100%

Molecule: KFKRPPLRRVRMSADAMLKA [102–125]
- Approx. IC50 μg/well [1]: >>20 μg/well

Molecule: SADAMLKALLGSKHKVCMDL [118–137]
- Approx. IC50 μg/well [1]: 40 μg/well

Molecule: Troponin T: troponin subunit T, tropomyosin binding polypeptide of the troponin complex; SEQ ID NO:3
- IC50 [3]: 2140 nM
- Percent inhibition of BCE proliferation ([3]; 1.6 μM): 23%
- Percent inhibition of BCE proliferation ([3]; 3.3 μM): 62%
- Inhibition of bFGF-stimulated EC proliferation (in words) ([3]; 1 and 5 μg/well): not

Molecule: KLFDLRGKFKRPPLRRV [98–114]
- Approx. IC50 μg/well [1]: >>40 μg/well

Molecule: QKLFDLRGKFKRPPLRRVRM [98–117]
- Approx. IC50 μg/well [1]: >>20 μg/well

Molecule: KHKVCMDL [130–137]
- Approx. IC50 μg/well [1]: 50 μg/well

Molecule: EDMNQKLFDLRGKFKRPPLR [94–113]
- Approx. IC50 μg/well [1]: >>20 μg/well

Molecule: protamine
- Reported dose of angiogenesis inhibitor tested alone in the CAM assay [2]: 50 µg

Molecule: MLKALLGS [122–129]
- Approx. IC50 μg/well [1]: >>50 μg/well

Molecule: B-cyclodextrin tetradecasulfate
- Lowest reported dose effective as combination in the CAM assay [2]: 14 µg

B1: 1–120: recombinant rabbit TnI fragment, N′ and inhibitory (I′) region, aa 1–120 (protein, listed as Oryctolagus cuniculus)
chain: GDEEKRNRAITARRQHLKSVMLQIAATELEKEEGRREAEKQNYLAEHCPPLSLPGSMAEVQELCKQLHAKIDAAEEEKYDMEIKVQKSSKELEDMNQKLFDLRGKFKRPPLRRVRMSADA
- Approx. IC50 μg/well [1]: >>0.3 μg/well
- % I (Percent Inhibition) of EC proliferation ([1]; 0.01 μg/well): 6%
- % I (Percent Inhibition) of EC proliferation ([1]; 0.025 μg/well): 0%
- % I (Percent Inhibition) of EC proliferation ([1]; 0.1 μg/well): 12%
- % I (Percent Inhibition) of EC proliferation ([1]; 0.3 μg/well): 17%
- IC50 [1]: > 100 nM

B2: platelet factor IV: previously described angiogenesis inhibitor (Taylor et al. 1982) (protein, UniProt P02776 32-101, looked up)
Platelet factor 4: EAEEDGDLQCLCVKTTSQVRPRHITSLEVIKAGPHCPTAQLIATLKNGRKICLDLQAPLYKKIIKKLLES
- Reported dose of angiogenesis inhibitor tested alone in the CAM assay [2]: 10 µg

B3: 1–94: recombinant rabbit TnI fragment, amino-terminal (N′) region, aa 1–94 (protein, listed as Oryctolagus cuniculus)
chain: GDEEKRNRAITARRQHLKSVMLQIAATELEKEEGRREAEKQNYLAEHCPPLSLPGSMAEVQELCKQLHAKIDAAEEEKYDMEIKVQKSSKELED
- Approx. IC50 μg/well [1]: >0.3 μg/well
- % I (Percent Inhibition) of EC proliferation ([1]; 0.01 μg/well): −12%
- % I (Percent Inhibition) of EC proliferation ([1]; 0.025 μg/well): 6%
- % I (Percent Inhibition) of EC proliferation ([1]; 0.1 μg/well): 31%
- % I (Percent Inhibition) of EC proliferation ([1]; 0.3 μg/well): 28%
- IC50 [1]: > 100 nM

B4: 96–181: recombinant rabbit TnI fragment, carboxy terminus (C′) and I′ region, aa 96–181 (protein, listed as Oryctolagus cuniculus)
chain: NQKLFDLRGKFKRPPLRRVRMSADAMLKALLGSKHKVCMDLRANLKQVKKEDTEKERDLRDVGDWRKNIEEKSGMEGRKKMFESES
- % I (Percent Inhibition) of EC proliferation ([1]; 0.01 μg/well): 25%
- % I (Percent Inhibition) of EC proliferation ([1]; 0.025 μg/well): 28%
- % I (Percent Inhibition) of EC proliferation ([1]; 0.1 μg/well): 54%
- % I (Percent Inhibition) of EC proliferation ([1]; 0.3 μg/well): 48%

B5: Troponin I: troponin subunit I, inhibitory polypeptide of the troponin complex; human fast twitch sequence SEQ ID NO:2 (protein, listed as Homo sapiens)
chain: MGDEEKRNRAITARRQHLKSVMLQIAATELEKEESRREAEKQNYLAEHCPPLHIPGSMSEVQELCKQLHAKIDAAEEEKYDMEVRVQKTSKELEDMNQKLFDLRGKFKRPPLRRVRMSADAMLKALLGSKHKVCMDLRANLKQVKKEDTEKERDLRDVGDWRKNIEEKSGMEGRKKMFESES
- IC50 [3]: 1140 nM
- Percent inhibition of BCE proliferation ([3]; 240 nM): 33%
- Percent inhibition of BCE proliferation ([3]; 1.2 μM (5 μg/well), 1.2 µM): 46%
- Percent inhibition of BCE proliferation ([3]; 1.2 μM (5 μg/well), listed as full-length TnI, 1.2 µM): approximately 46%
- Inhibition of bFGF-stimulated BCE proliferation (in words) ([3]; 10 μg/well): inhibition was not observed

Source: patent publication US7078385B2, “Methods of inhibiting angiogenesis with fragments and homologs of troponin subunit I” (Boston Life Sciences, Inc., priority 1996, dated 2006)
